Data taken from ChEMBL document CHEMBL1136601, “Substituted aminopyridines as potent and selective phosphodiesterase-4 inhibitors” (Bioorg Med Chem Lett, 2003).
Activity calls are given as the source filed them. The calls are words filed in the database; no cut-off is given here.

Experiments:
[1] = target: 3',5'-cyclic-AMP phosphodiesterase 4A (Homo sapiens, UniProt P27815); experiment: Inhibitory activity against human PDE4A expressed isoform using construct representing the common region of spliced variants as GST-fusion protein in Sf9 cells.
Homo sapiens = organism: Homo sapiens; experiment: Inhibition of LPS-induced TNF-alpha production in human whole blood.; type: functional, organism-based
[2] = Half life period after intravenous administration at 5 mg/kg in rat; type: ADME, organism-based; set-up: dose 5 mg/kg, route intravenous; conditions: in vivo
Ovis aries [3] = experiment: In vivo inhibition of ovalbumin-induced bronchoconstriction in sheep early phase at 2.0 mg/kg ip dose 4 hr prior to challenge; type: functional; conditions: route intraperitoneal
Mustela putorius furo = experiment: Emesis in ferrets at 30 mg/kg oral dose; type: functional
[4] = Cmax in rats after 20 mg/kg oral dose; type: ADME, organism-based; set-up: dose 20 mg/kg, route oral; conditions: rat, in vivo
[5] = Oral bioavailability (dose 20 mg/kg p.o.); type: ADME, organism-based; conditions: rat, in vivo
Cavia porcellus [6] = experiment: In vivo inhibition of ovalbumin-induced bronchoconstriction in conscious guinea pig at 1 mg/kg ip dose 4 hr prior 4 hr to challenge; type: functional; conditions: route intraperitoneal
[7] = Cmax in ferrets after 30 mg/kg oral dose; type: ADME, organism-based, Mustela putorius furo; set-up: dose 30 mg/kg, route oral; conditions: ferret, in vivo
Ovis aries [8] = experiment: In vivo inhibition of ovalbumin-induced bronchoconstriction in sheep late phase at 2.0 mg/kg ip dose 2 hr prior to challenge; type: functional; conditions: route intraperitoneal
Ovis aries [9] = experiment: In vivo inhibition of ovalbumin-induced bronchoconstriction in sheep early phase at 20 mg/kg ip dose 30 hr prior to challenge; type: functional; conditions: route intraperitoneal
Cavia porcellus [10] = experiment: In vivo inhibition of ovalbumin-induced bronchoconstriction in conscious guinea pig at 1 mg/kg ip dose 30 hr prior to challenge; type: functional; conditions: route intraperitoneal
Ovis aries [11] = experiment: In vivo inhibition of ovalbumin-induced bronchoconstriction in sheep late phase at 20 mg/kg ip dose 2 hr prior to challenge; type: functional; conditions: route intraperitoneal

Chain of 3',5'-cyclic-AMP phosphodiesterase 4A (P27815 whole entry, looked up, stated change not applied, the tested form may be a part, canonical isoform): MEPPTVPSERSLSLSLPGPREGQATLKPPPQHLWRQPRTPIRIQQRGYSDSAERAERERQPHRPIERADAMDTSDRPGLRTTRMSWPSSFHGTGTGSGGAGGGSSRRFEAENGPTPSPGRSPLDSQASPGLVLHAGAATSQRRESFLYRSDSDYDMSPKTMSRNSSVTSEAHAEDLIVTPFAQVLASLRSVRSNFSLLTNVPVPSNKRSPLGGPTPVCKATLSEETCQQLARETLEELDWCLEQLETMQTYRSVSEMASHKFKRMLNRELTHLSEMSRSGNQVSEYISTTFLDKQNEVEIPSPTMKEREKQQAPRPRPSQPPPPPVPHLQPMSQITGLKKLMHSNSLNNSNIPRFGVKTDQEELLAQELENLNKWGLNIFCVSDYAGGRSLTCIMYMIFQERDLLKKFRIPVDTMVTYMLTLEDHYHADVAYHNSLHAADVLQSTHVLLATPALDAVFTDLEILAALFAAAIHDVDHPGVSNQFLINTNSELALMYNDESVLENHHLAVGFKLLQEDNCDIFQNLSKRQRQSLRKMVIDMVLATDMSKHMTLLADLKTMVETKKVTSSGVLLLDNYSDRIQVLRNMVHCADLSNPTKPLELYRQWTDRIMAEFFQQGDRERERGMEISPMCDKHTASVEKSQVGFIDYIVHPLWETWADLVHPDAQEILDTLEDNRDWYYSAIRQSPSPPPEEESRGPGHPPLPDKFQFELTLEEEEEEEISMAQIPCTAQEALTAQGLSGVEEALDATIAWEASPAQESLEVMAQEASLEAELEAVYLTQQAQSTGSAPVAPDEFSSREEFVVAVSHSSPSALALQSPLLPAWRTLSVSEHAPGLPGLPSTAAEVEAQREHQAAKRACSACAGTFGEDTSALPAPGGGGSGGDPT

SMILES	IC50 [1] [nM]	IC50 (Homo sapiens; Homo sapiens, Blood) [nM]	other results
[O-][n+]1ccc(CC(c2ccc(C(O)(C(F)(F)F)C(F)(F)F)cc2)c2ccc(OC(F)F)c(OC(F)F)c2)cc1 (stereo not given)	4.2		half-life [2]: > 24 h; Efficacy (Ovis aries [3]): 85%; Emesis_ED (Mustela putorius furo): inactive; Cmax [4]: 3.5 µM; bioavailability [5]: 70%; Efficacy (Cavia porcellus [6]): 58%; Cmax [7]: 16 µM; Efficacy (Ovis aries [8]): 95%
Cc1ccc(CCNc2ccc(C(Cc3cc[n+]([O-])cc3)c3ccc(OC(F)F)c(OC(F)F)c3)cn2)cc1 (stereo not given)	2.3	800	
CC(C)Nc1ccc(C(Cc2cc[n+]([O-])cc2)c2ccc(OC(F)F)c(OC(F)F)c2)cn1 (stereo not given)	12	800	
C[C@H](c1ccccc1)N(C)c1ccc(C(Cc2cc[n+]([O-])cc2)c2ccc(OC(F)F)c(OC(F)F)c2)cn1 (stereo not given in full)	0.3	700	
Cc1c[n+]([O-])ccc1CC(c1ccc(C(O)(C(F)(F)F)C(F)(F)F)cc1)c1ccc(OC(F)F)c(OC(F)F)c1 (stereo not given)	1.3	300	
CN(CCc1ccccc1)c1ccc(C(Cc2cc[n+]([O-])cc2)c2ccc(OC(F)F)c(OC(F)F)c2)cn1 (stereo not given)	5.8	800	
CC(C)N(Cc1ccccc1)c1ccc(C(Cc2cc[n+]([O-])cc2)c2ccc(OC(F)F)c(OC(F)F)c2)cn1 (stereo not given)	9.3	1000	
O=C(Cc1ccccc1)Nc1ccc(C(Cc2cc[n+]([O-])cc2)c2ccc(OC(F)F)c(OC(F)F)c2)cn1 (stereo not given)	7.8	3800	
CC(C)(Nc1ccc(C(Cc2cc[n+]([O-])cc2)c2ccc(OC(F)F)c(OC(F)F)c2)cn1)c1ccccc1 (single isomer, unassigned; (-))	0.8		half-life [2]: 2 h; Cmax [4]: 2.4 µM; Efficacy (Ovis aries [9]): 64%; IC50 (Homo sapiens): 100 nM; bioavailability [5]: 100%; Efficacy (Cavia porcellus [10]): 54%; Efficacy (Ovis aries [11]): 97%
CN(Cc1ccccc1)c1ccc(C(Cc2cc[n+]([O-])cc2)c2ccc(OC(F)F)c(OC(F)F)c2)cn1 (stereo not given)	1.2	300	
CCN(Cc1ccccc1)c1ccc(C(Cc2cc[n+]([O-])cc2)c2ccc(OC(F)F)c(OC(F)F)c2)cn1 (stereo not given)	2.3	400	
C[C@@H](Nc1ccc(C(Cc2cc[n+]([O-])cc2)c2ccc(OC(F)F)c(OC(F)F)c2)cn1)c1ccccc1 (stereo not given in full)	1.7	900	

More lines, in order of falling IC50 [1], values ahead:

IC50 [1] [nM]	IC50 (Homo sapiens; Homo sapiens, Blood) [nM]	SMILES	other results
33	1800	CC(=O)Nc1ccc(C(Cc2cc[n+]([O-])cc2)c2ccc(OC(F)F)c(OC(F)F)c2)cn1 (stereo not given)	
31		[O-][n+]1ccc(CC(c2ccc(N3CCCC3)nc2)c2ccc(OC(F)F)c(OC(F)F)c2)cc1 (stereo not given)	
31	1600	Nc1ccc(C(Cc2cc[n+]([O-])cc2)c2ccc(OC(F)F)c(OC(F)F)c2)cn1 (stereo not given)	
23		CC(C)(Nc1ccc(C(Cc2cc[n+]([O-])cc2)c2ccc(OC(F)F)c(OC(F)F)c2)cn1)c1ccccc1 (stereo in doubt; (+)-3n)	IC50 (Homo sapiens): 10000 nM
18	17000	CC(C)(C)N(Cc1ccccc1)c1ccc(C(Cc2cc[n+]([O-])cc2)c2ccc(OC(F)F)c(OC(F)F)c2)cn1 (stereo not given)	
16	34000	O=S(=O)(Nc1ccc(C(Cc2cc[n+]([O-])cc2)c2ccc(OC(F)F)c(OC(F)F)c2)cn1)c1ccccc1 (stereo not given)	
8.3	1700	CCNC(=O)Nc1ccc(C(Cc2cc[n+]([O-])cc2)c2ccc(OC(F)F)c(OC(F)F)c2)cn1 (stereo not given)	
1.6		CC(C)(Nc1ccc(C(Cc2cc[n+]([O-])cc2)c2ccc(OC(F)F)c(OC(F)F)c2)cn1)c1ccccc1 (stereo in doubt; 3n)	IC50 (Homo sapiens): 200 nM
1.5	300	CN(Cc1ccc2ccccc2c1)c1ccc(C(Cc2cc[n+]([O-])cc2)c2ccc(OC(F)F)c(OC(F)F)c2)cn1 (stereo not given)	
1.2	400	[O-][n+]1ccc(CC(c2ccc(NCc3ccccc3)nc2)c2ccc(OC(F)F)c(OC(F)F)c2)cc1 (stereo not given)	
0.8	2100	CN(c1ccccc1)c1ccc(C(Cc2cc[n+]([O-])cc2)c2ccc(OC(F)F)c(OC(F)F)c2)cn1 (stereo not given)	
0.6	200	CCN(c1ccc(C(Cc2cc[n+]([O-])cc2)c2ccc(OC(F)F)c(OC(F)F)c2)cn1)[C@H](C)c1ccccc1 (stereo not given in full)	
